Reference: patent US11655208B2, “1-carboxy-2-hydroxy-3-iminopropane and extraction method thereof” (Jiangnan University, priority 2020, dated 2023)

Key:
Format in all cases: in vivo
[1] = system: male ICR mice; test: Direct sleep observation test; conditions: for 12 h sleep duration period: mice, sleep time within 12 hours after the gavage, x ± s
Experimental: (§1) 30 SPF-level 4-week-old male ICR (Institute of Cancer Research) mice were adaptively reared for 1 week and then randomly divided into 3 groups with 10 mice in each group. An experimental group and a blank group were given an aqueous solution of the 1-carboxy-2-hydroxy-3-iminopropane and water at a dose of 1.0 g/kg·bw by gavage respectively, and a positive control group was given an aqueous solution of estazolam at a dose of 2 mg/kg·bw by the gavage. After continuous gavage for 14 days, tests were carried out. The tests were carried out around 25° C. in a quiet environment.
After the open field test was completed, a direct sleep observation test was carried out the next night. 30 minutes after the gavage, a surveillance camera was used for observation, and a sleep time of the mice in each group within 12 hours after the gavage was recorded.

[2] = system: male ICR mice; test: Pentobarbital sodium induced sleep test; design: Sleep duration period: unit not given here
Experimental: as §1
Before the test, a preliminary test was carried out to determine a dose of pentobarbital sodium by intraperitoneal injection. After the intraperitoneal injection, the dose when all mice fell asleep for a moderate time was used as a standard, and the test was carried out with this dose (50 mg/kg·bw). 30 minutes after the last gavage, the mice were given the pentobarbital sodium by intraperitoneal injection to induce sleep. The time from injection of the pentobarbital sodium to disappearance of a righting reflex was recorded as a sleep latency period of the mice. The time from the disappearance of the righting reflex to reappearance of the righting reflex was recorded as a […] of the mice. Whether or not the latency period of each group was shortened and whether or not the sleep time was prolonged were observed.

[3] = system: male ICR mice; test: Open field test; conditions: for Movement speed / Movement time / Stay time in the middle area: mice, gavage for 14 days, within 10 minutes, x ± s
Experimental: as §1
An open field maze of 4 units (each unit 50 cm×50 cm×38 cm) consisting of 4 activity spaces were used in the test, and 4 mice were tested each time. The open field spaces were cleaned with alcohol before the test, and the test was started 30 minutes after a sample group was administered (15 minutes after a positive control group was administered). During the test, tails of the mice were gently grasped, and the mice were placed in the middle of each unit of the open field maze for adaption for 5 minutes. A software start button was clicked to activate software for tracking moving paths of the mice. With an average movement speed, a movement time and a stay time in the middle area within 10 minutes as indexes, data analysis was conducted by using EthoVision XT 11 software. After each test was completed, urine and feces were cleaned, and a bottom and an inner wall of the maze were sprayed with 5-10% ethanol and then wiped with paper to remove an odor left by the mice. Then, a next group of the mice was tested, and influence of the odor and residue on the next group of the mice was avoided.

[4] = mice, pentobarbital sodium 50 mg/kg·bw i.p. 30 minutes after the last gavage, x ± s
[5] = pentobarbital sodium induced sleep, vs blank group, P<0.05

Row | SMILES | 12 h sleep duration period [1] [min] | total sleep duration period within 12 hours (in words) ([1]; vs blank group, P<0.05) | Latency period [2, 4] [s] | Sleep duration period [2, 4] | sleep duration period prolonged by [2, 5] [%] | sleep latency period shortened by [2, 5] [%] | Movement speed [3] [cm/s] | Movement time [3] [s] | Stay time in the middle area [3] [%] | effect on stay time in the middle area of the mice (in words) ([3]; vs blank group, P<0.01) | effect on movement speed of the mice (in words) ([3]; vs blank group, P<0.05) | effect on movement time of the mice (in words) ([3]; vs blank group, P<0.05)
1 | N=CC(O)CC(=O)O (centres unmarked) [1-carboxy-2-hydroxy-3-iminopropane] | 374.33 ± 24.48 | longer than that of the blank group | 3.60 ± 0.368 | 34.73 ± 12.71 | 61.49 | 24.62 | 4.66 ± 1.14 | 333.76 ± 56.84 | 17.81 ± 5.14 | significantly increased | significantly reduced | significantly reduced
2 | Clc1ccc2c(c1)C(c1ccccc1)=NCc1nncn1-2 [estazolam, reference compound] | 404.10 ± 34.03 |  | 2.81 ± 0.57 |  |  |  | 4.60 ± 0.96 | 325.85 ± 51.64 | 20.63 ± 9.01 |  |  | 
